Results as given in patent publication US6645973B1, “Spiro(2h-1-benzopyran-2,4-piperidine)derivatives as glycine transport inhibitors” (Akzo Nobel, priority 1999, dated 2003).
Counter-ions that a name gives are not always drawn.

Row | Structure (SMILES) | melting point
1 | O=C(O)CN1CCC2(C=C(c3ccc4ccccc4c3)c3ccccc3O2)CC1 (as salt: hydrochloride) [Example 10, 1′-Carboxymethyl-4-(2-naphthyl)spiro[2H-1-benzopyran-2,4′-piperidine]hydrochloride] | 253 to 264 °C
2 | O=C([O-])CN1CCC2(C=C(c3ccc(F)cc3)c3ccccc3O2)CC1.[Li+] | 285 to 291 °C (dec.)
3 | O=C(O)CN1CCC2(C=C(c3ccc(Cl)cc3)c3ccccc3O2)CC1 (as salt: hydrochloride) [Example 2, 1′-Carboxymethyl-4-(4-chlorophenyl)spiro[2H-1-benzopyran-2,4′-piperidine]hydrochloride] | 259 to 265 °C
4 | O=C([O-])CN1CCC2(C=C(c3ccccc3)c3ccccc3O2)CC1.[Li+] | 280 to 281 °C

More lines, now with the values ahead:

Row | melting point | Structure (SMILES)
5 | 211 to 217 °C | C#CCOc1c(F)cc(C2=CC3(CCN(CC(=O)O)CC3)Oc3ccccc32)cc1F (as salt: hydrochloride) [Example 57, 1′-Carboxymethyl-4-(3,5-difluoro-4-propargyloxyphenyl)spiro[2H-1-benzopyran-2,4′-piperidine]hydrochloride]
6 | 231 to 239 °C | CN(C)c1ccc(C2=CC3(CCN(CC(=O)O)CC3)Oc3ccccc32)cc1F (as salt: hydrochloride) [Example 37, 1′-Carboxymethyl-4-(4-dimethylamino-3-fluorophenyl)spiro[2H-1-benzopyran-2,4′-piperidine]hydrochloride]
7 | 119 to 121 °C | CCOC(=O)CN1CCC2(C=C(c3ccc(CC)cc3)c3ccccc3O2)CC1 [Example 65, Ethyl 4-(4-ethylphenyl)spiro[2H-1-benzopyran-2,4′-piperidine]-1′-acetate]
8 | 221 to 225 °C | C=CCOc1c(F)cc(C2=CC3(CCN(CC(=O)O)CC3)Oc3ccccc32)cc1F (as salt: hydrochloride) [Example 55, 4-(4-Allyloxy-3,5-difluorophenyl)-1′-carboxymethylspiro[2H-1-benzopyran-2,4′-piperidine]hydrochloride]
